Measurements taken from patent US5985937A, “Use of 2,4-distributed phenol derivatives as 5-lipoxygenase inhibitors” (priority 1994, dated 1999).
pIC50: −log10 of the molar value. Entries after “also recorded” stand apart in the source; their conditions may differ.

What was measured:
tendonitis = assay: treatment of horses with tendonitis; format: in vivo, horse; settings: 15 mg/day intraarticular infiltration
Experimental: Twenty five horses suffering from tendonitis, with claudication of the corresponding tendon, were treated with 15 mg/day via intraarticular infiltration of Bobel-24.

5-lipoxygenase (5-LO) = target: T1, 5-lipoxygenase (5-LO) (Homo sapiens, UniProt P09917); assay: 5-LO inhibiting activity in human polymorphonuclear leukocytes ([14C]-arachidonic acid, A23187; HPLC of eicosanoids); format: cell-based
T1 construct: endogenous in cells; host or cells: human polymorphonuclear leukocytes from donor blood
T1 sequence (P09917 1-674): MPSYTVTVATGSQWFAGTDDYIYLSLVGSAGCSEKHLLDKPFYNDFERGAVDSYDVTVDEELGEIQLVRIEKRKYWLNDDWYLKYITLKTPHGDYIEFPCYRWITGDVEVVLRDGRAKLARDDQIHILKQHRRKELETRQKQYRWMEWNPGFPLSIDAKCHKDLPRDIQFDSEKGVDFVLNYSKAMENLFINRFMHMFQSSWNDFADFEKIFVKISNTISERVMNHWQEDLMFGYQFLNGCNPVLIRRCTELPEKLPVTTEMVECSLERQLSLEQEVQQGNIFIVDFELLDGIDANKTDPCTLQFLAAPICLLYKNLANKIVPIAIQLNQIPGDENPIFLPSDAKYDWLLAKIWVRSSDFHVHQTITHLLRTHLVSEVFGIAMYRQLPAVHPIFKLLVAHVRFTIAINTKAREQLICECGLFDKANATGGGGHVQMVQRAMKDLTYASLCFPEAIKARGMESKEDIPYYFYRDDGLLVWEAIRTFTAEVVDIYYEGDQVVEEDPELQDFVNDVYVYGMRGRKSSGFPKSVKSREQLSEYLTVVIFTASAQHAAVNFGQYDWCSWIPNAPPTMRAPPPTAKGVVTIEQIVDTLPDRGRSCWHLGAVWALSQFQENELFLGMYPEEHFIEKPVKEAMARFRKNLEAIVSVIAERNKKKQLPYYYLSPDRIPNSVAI
Experimental: In order to show the 5-LO inhibiting activity of the products of the present invention, a specific test based on human polymorphonuclear leukocytes is chosen.
5-LO Inhibiting Activity in Polymorphonuclear Leukocytes
Blood was obtained from donors which had not received medication during the ten days previous to the extraction. The blood was treated with an anticoagulant (ACD-A) and was centrifuged at 200 g during 12 min at room temperature, separating the supernatant. A solution of Dextran T-500 in physiological serum was added to the pellet, in order to obtain a final concentration of 0.6% w/v, and was allowed to sediment during 40 min. The supernatant was centrifuged at 180 g during 10 min at room temperature. The pellet was resuspended in 5 ml of Hank's buffer, pH 7.4. After the addition of 3 ml of Lymphoprep, the suspension was centrifuged at 450 g during 30 min, and the layers of supernatant were discarded. The next step was the lysis of the erythrocytes present by adding 2 ml of a saline solution. The resulting volume was adjusted to 10 ml with Hank's buffer, pH 7.4. The solution was centrifuged during 10 min at 180 g; the supernatant was discarded and the resulting pellet was resuspended in 1-2 ml of Hank's buffer, pH 7.4. The cellular density was determined using a haemocytometer using the procedure of microcollection Unopette to determine the levels of platelet contamination. Cellular density was adjusted to 2×10^7 cells/ml with Hank's buffer, pH 7.4 and CaCl2 was added to a final concentration of 1.5 mM.
Aliquots (0.5 ml) of the polymorphonuclear leukocytes suspensions, obtained as described in part (a), were incubated during 5 min at 37° C. in the absence (control) and in the presence of three different concentrations of each drug. Afterwards an ethanol solution of [^14 C]-arachidonic acid and A23187 ionophore was added to obtain a final concentration of 10 and 5 μM, respectively. After 5 min of incubation the reaction was stopped by addition of 0.5 ml of ice-cold ethanol. Samples were centrifuged during 2 min at 1500 g, and the supernatants were kept at -80° C. until analyzed. Controls were carried out using the polymorphonuclear leukocyte suspensions aliquots in the presence of the solvent (DMSO) only.
The analysis of the products from the transformation of arachidonic acid through the action of the lipoxygenase (these products being the eicosanoids) was carried out using high pressure liquid chromatography (HPLC), in a reverse phase column (Ultrasphere-ODS, Beckman), injecting 500 μl of the supernatants obtained from the incubations. Elution was carried out using an isocratic mix of mathanol:water:triethylamine:trifluoroacetic acid, 75:25:0.05:0.10, with a flux of 1 ml/min. Detection was carried out with a radioactivity detector with a liquid scintillation cell on-line coupled with the column.

canine arthritis = assay: clinical trial on canine arthritis; format: in vivo, dog; parameters: key: +++: very good response, total recovery; ++: good response, functionability recovery; +: moderate response, improvement; -: negative response or no apparent improvement; settings: 2 mg/kg day orally, 15 days
Experimental: After the diagnosis, each animal was treated with Bobel capsules during 45 days, with a follow up every 15 days. Blood, synovial liquid and urine samples were taken at the beginning and at the end of the treatment in order to perform the following tests: Synovial liquid analysis (cytology, cytokines 1,6,8 and TNF); LTB4; LTC4; PGE2; hematic count and leukocyte content; standard serum biochemistry; urine sediment; Rose-Wealer test; and radiology control. The methodology for clinical validation involved applying evaluating uniform parameters and classifying the results according to the following notations: (+++)=very good response, total recovery; (++)=good response, functionability recovery; (+)=moderate response, improvement; (-)=negative response or no apparent improvement.
After the diagnosis each animal was treated with capsules of Bobel-24 during 15 days. Blood, synovial liquid and urine samples were taken at the beginning and at the end of the treatment in order to perform the same tests as in example 13, using the same notation for the clinical evolution.

herpes simplex = assay: test for antiviral activity in vitro
Description: The 2,4-disubstituted phenol derivatives of the present invention are anti-herpetic agents in vivo, since they eliminate the symptoms of patients suffering from different types of herpes simplex (genital herpes, herpes of mouth and lips, recurrent herpes), and of patients suffering from herpes zoster. There is no relapse after leaving the treatment. The products are active both intramuscularly and topically, the first via being preferred.
A total of 25 patients with symptoms of different herpes simplex (genital, buccal or reincident) were treated with 15 mg/day of Bobel-24, intramuscularly, during a month, with the following results: with the ten patients of genital herpes simplex, the results was excellent in 7 cases, good in 2 and regular in 1; of the twelve with buccal herpes simplex it was excellent in 9 cases, good in 2 and regular in 1; of the 3 with reincident herpes it was excellent in 2 of the cases and good in 1. […] The case of genital herpes which resulted "regular" was an obese and diabetic […], and although there was an improvement there was also reincidency. Independently an test for antiviral activity in vitro resulted negative.

dogs = assay: acute toxicity in dogs; format: in vivo, dog; settings: after 28 days at doses of 200, 300, 400, 1000 and 2000 mg/kg

SMILES: Oc1c(I)cc(I)cc1I [Bobel-24, 2,4,6-triiodophenol]
- outcome in the rest of the cases (tendonitis; horses, 15 days): the claudication disappeared within the same period of time, but an inflammatory ring persisted around the tendon
- cases in which the process was totally reduced in 15 days (tendonitis; of twenty five horses): 17 cases
- pIC50 (5-lipoxygenase (5-LO)): 5.00
- products derived from 5-LO biosynthesis (chromatogram) (5-lipoxygenase (5-LO); 25 μM, arachidonic acid 10 μM, FIG. 2): practically complete disappearance of the products derived from 5-LO biosynthesis
- 15-HETE and 12-HETE formation (5-lipoxygenase (5-LO); 25 μM, arachidonic acid 10 μM, due to contaminating platelets): increment in 15-HETE and 12-HETE
- concentration of biosynthesis products versus concentration of the drug (5-lipoxygenase (5-LO); LTB4, 6-trans-LTB4, 5-HETE, 20-OH-LTB4, FIGS. 3 and 4): decreased in approximately linear with the concentration of the drug used
- concentration required for a given inhibition relative to benoxaprofen or ketaconozale (5-lipoxygenase (5-LO); ratio from IC50): approximately one tenth; also recorded: ten times smaller
- inhibition at 25 µM (5-lipoxygenase (5-LO); read-out: 5-LO inhibitory activity, approximate inhibition percentage): 100%
- gradient of decrease of 5-LO products with concentration, compared with the other two drugs (5-lipoxygenase (5-LO); versus benoxaprofen and ketoconazole, FIGS. 3 and 4): gradients were greater
- Evolution, knee instability (canine arthritis; German shepherd 2 years): ++
- Evolution, osteochondritis (canine arthritis; Mongrel 1 year): +++
- Evolution, arthritis (canine arthritis; b340 Mongrel 8, b342 German shepherd 6, b343 Rottwailer 1, b347 Mongrel 7 years): +++
- antiviral activity in vitro (herpes simplex): negative
- acute toxicity in dogs (dogs): not observed
